Laboratory results: patent US20090148850A1, “Methods for identifying modulators of P2RY14” (priority 2007, published 2009)

Columns and labels:
simian P2RY14 = test: Membrane filtration binding assay, simian P2RY14; parameters: species or system chimpanzee; settings: simian P2RY14 membranes
Method: Membrane preparations were made by N2 cavitation using a Parr unit. […] Cell were Dounce homogenized (size B, 10 strokes) and then added to the cavitation unit. Pressure was adjusted to 800 psi and cells were left under pressure for 30 minutes. Broken cells were released drop by drop and spun at 1000 g for 10 minutes. Supernatent was spun at 160,000 g (rotor type 60 Ti, 40000 rpm for 30 min). Pellet was resuspended in 10 mM HEPES/KOH pH 7.4, 1 mM EDTA in ⅕ the original volume, dounce homogenized (size A, 10 strokes), aliquoted, and frozen at −80° C.
Binding assays were performed in 10 mM Hepes pH 7.4 (KOH), 5 mM MnCl2, 5 mM MgCl2 buffer. Membranes (10 μg/well for human P2RY14 and 30 μg/well for simian P2RY14) were incubated with 10 nM [5.6-^3H] Uridine 5′-triphosphate (UTP), ammonium salt from Amersham Biosciences (# TRK412) in presence of compounds diluted in DMSO (2% final in assay), in a total volume of 100 μl. 50 minutes (human P2RY14) or 60 minutes (simian) P2RY14) incubations were performed at room temperature with shaking. […] To examine the stability of [^3H]-UTP in the membrane filtration binding assay, 100 ul aliquots of the reaction mixture were extracted at 2, 10, 20, 40, 60 and 90 minutes with 100 uL of cold 80 mM EDTA solution (pH 8) and 200 uL of cold Acetonitrile. After mixing, proteins were precipitated by centrifugation at 13000 rpm for 10 minutes at 4° C. […] After 0.5 min at 10:90 50 mM KH2PO4/750 mM KH2PO4, a gradient was applied in order to increase to 100% 750 mM KH2PO4 at 5 min, after which this composition was maintained for an additional 3 min. Samples were kept at 4° C. prior to HPLC analysis

P2RY14 = target: T1, P2RY14 (Homo sapiens, UniProt Q15391); parameters: host or cells: yeast and HEK-293 cells (Chambers et al., J. Biol. Chem. 275: 10767-10771 (2000)); settings: yeast and mammalian cells, Chambers et al. 2000; cited from earlier work
T1 sequence (Q15391 1-338): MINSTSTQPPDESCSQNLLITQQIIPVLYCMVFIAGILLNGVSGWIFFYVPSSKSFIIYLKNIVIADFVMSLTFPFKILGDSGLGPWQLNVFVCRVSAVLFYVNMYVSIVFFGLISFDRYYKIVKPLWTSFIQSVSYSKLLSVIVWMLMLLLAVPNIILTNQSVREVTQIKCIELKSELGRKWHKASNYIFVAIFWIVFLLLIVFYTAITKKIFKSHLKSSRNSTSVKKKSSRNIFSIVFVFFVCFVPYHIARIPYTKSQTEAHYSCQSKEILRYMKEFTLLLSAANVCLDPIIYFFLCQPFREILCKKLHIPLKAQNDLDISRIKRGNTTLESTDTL

## O=c1ccn([C@@H]2O[C@H](COP(=O)(O)O)[C@@H](O)[C@H]2O)c(=O)[nH]1 [UMP]
Simian P2RY14
  competition for [3H]-UTP/[3H]-UDP binding: able to successfully compete
Simian P2RY14; 10 nM radioligand, read-out: Ki, competition for [3H]-UTP/[3H]-UDP binding
  Ki: ~1 µM
P2RY14
  activation of P2RY14: unable to activate
